# Assay results: US4942245A, “Benzimidazole Derivatives” (Kyorin Pharmaceutical Co., Ltd., priority 1987, dated 1990)
# What was measured:
# leukotriene D4 = assay: Leukotriene D4-induced bronchoconstriction (modified Konzett-Rossler, transpulmonary pressure) in anesthetized guinea pig, oral administration; assay type: in vivo, male Hartley guinea pig; details: p.o., 2 hours before leukotriene D4 (3 μg/kg, i.v.)
# Description: A male Hartley guinea pig weighing about 450 g was anesthetized with sodium pentobarbital (30 mg/kg,i.p.). The change in transpulmonary pressure was measured by modifying the method of Konzett-Rossler (J. Harvey, et al., J. Pharmacol. Method. 9, 147-155, 1983) under an artificial ventilation. Animal was treated with indomethacin (10 mg/kg,i.v.) and propranolol (1 mg/kg,i.v.). Bronchoconstrictor response was obtained by bolus injection of leukotriene D4 (3 μg/kg,i.v.). Test compounds were suspended in 5% Gum Arabic solution and orally administered 2 hours before the challenge with leukotriene D4.
# leukotriene = details: oral; P. Sheard et al, 1977; cited from earlier work
Compound,Inhibition (%) of LTD4-induced bronchoconstrictor response (leukotriene D4; 100 mg/kg),Inhibition (%) of LTD4-induced bronchoconstrictor response (leukotriene D4; 200 mg/kg),other results
"CCCc1c(OCCCSc2nc3ccc(C(=O)O)cc3[nH]2)ccc(C(C)=O)c1O [Example 1, 2-[3-(4-Acetyl-3-hydroxy-2-propylphenoxy)propyl-thio]benzimidazole-5-carboxylic acid]",47.8%,63.3%,
"CCCc1c(OCCCS(=O)(=O)c2nc3ccc(C(=O)O)cc3[nH]2)ccc(C(C)=O)c1O [Example 6, 2-[3-(4-Acetyl-3-hydroxy-2-propylphenoxy)propylsulfonyl]benzimidazole-5-carboxylic acid]",,40.5%,
CCCc1c(OCCCCSc2nc3cc(C(=O)O)ccc3[nH]2)ccc(C(C)=O)c1O [Example 11],84.6%,,Inhibition (%) of LTD4-induced bronchoconstrictor response (leukotriene D4; 25 mg/kg): 27.6%; Inhibition (%) of LTD4-induced bronchoconstrictor response (leukotriene D4; 50 mg/kg): 73.1%
CCCc1c(OCCCC[S+]([O-])c2nc3cc(C(=O)O)ccc3[nH]2)ccc(C(C)=O)c1O (stereo not drawn) [Example 12],,33.3%,
CCCc1c(OCCCCCSc2nc3cc(C(=O)O)ccc3[nH]2)ccc(C(C)=O)c1O [Example 24],,57.1%,
"CCCc1c(OCCCCc2nc3ccc(C(=O)O)cc3[nH]2)ccc(C(C)=O)c1O [Example 36, 2-[4-(4-Acetyl-3-hydroxy-2-propylphenoxy)butyl]-benzimidazole-5-carboxylic acid]",44.6%,88.6%,
CCCc1c(OCC(O)COc2ccc3c(=O)cc(C(=O)O)oc3c2CCC)ccc(C(C)=O)c1O (stereo not drawn) [FPL55712],,,effect of leukotriene antagonist when administered orally (leukotriene): no effect
"CCCc1c(OCCCS(=O)(=O)c2nc3ccccc3[nH]2)ccc(C(C)=O)c1O [Ref. 1, 2-[3-(4-acetyl-3-hydroxy-2-propylphenoxy)propylsulfonyl]-benzimidazole, reference compound]",,,Inhibition (%) of LTD4-induced bronchoconstrictor response (leukotriene D4; 400 mg/kg): 19.5%
